In publication PMC5382548 (Scientific Reports, 2015):
Entries after “also recorded” stand apart in the source; their conditions may differ.

Experiments:
[1] = tested on: KRAS mRNA in HCT116 cells; assay: KRAS mRNA steady-state levels, Taqman real-time RT-PCR, HCT116; assay type: cell-based, human; conditions: 72 h; for Reduction of KRAS mRNA steady-state levels, HCT116: equitoxic (IC50) concentrations (TMPyP4 12 μM)
Description: The effects of compounds on KRAS transcription in colon cancer cells (HCT116 and SW620) were evaluated by quantifying KRAS mRNA steady-state levels using Taqman real-time RT-PCR.
(a) KRAS mRNA steady-state expression was evaluated by Taqman Real-time RT-PCR using specific Taqman Assays for KRAS and β-Actin for normalization. KRAS mRNA steady-state expression levels were calculated by the ΔΔCt method, using DMSO (vehicle control) for calibration; and (b) KRAS protein steady-state expression evaluated by immunoblot relative to control (DMSO vehicle) Results are expressed as mean ± SEM of at least three independent experiments; *p < 0.05 and §p < 0.01 from DMSO (vehicle control).
HCT116, SW620 and HEK293 T cells were seeded in 35 mm plates at 150000 cells per well. […] After 72 h of compound exposure, cells were collected and processed for total RNA extraction using TRIZOL reagent (Invitrogen) according to the manufacturer's instructions. Samples were homogenized in TRIZOL reagent using a motor-driven Bio-vortexer (No1083; Biospec Products, Bartlesfield, OK) and disposable RNAse/DNAse free sterile pestles (Thermo Fisher Scientific, Inc., Chicago, IL). […] Evaluation of steady-state expression of KRAS mRNA was performed by Taqman Real-time PCR assay, detailed in Supplementary Information.
Total RNA extraction and Taqman real-time RT-PCR
Taqman Real-time PCR reactions were performed using 1.5 µg of total RNA, using High Capacity RNA to cDNA kit, according to the manufacturer`s instruction. Next, Real-time PCR reactions were performed using Taqman Universal Master Mix II, no UNG, and primers specific to human KRAS (assay ID Hs00000174_rf, # 4465807) primers and to Human β- Actin (ACTB # 401846) for normalization to endogenous control (both from Applied Biosystems Inc). Triplicate reactions were run per sample. Data was collected with 7300 System Sequence Detection Software, version 1.2.3 (Applied Biosystems Inc). The comparative threshold cycle method was used to calculate the amplification factor, where the threshold cycle (Ct) is defined as the cycle number at which the fluorescence passes the fixed threshold intensity level. KRAS expression levels in different samples were calculated on the basis of ΔΔCt method. For each cell line, vehicle control (DMSO) was used as the calibrator. The n-fold change in KRAS expression was obtained using the formula: 2-ΔΔCt. […]
SW620 and HEK293 T cells were seeded in 24-well plates 50,000cells/well. Twenty-four hours later, cells were exposed to compounds for 72 h. After treatment, cell culture supernatants were collected and adherent cells were detached with TrypLE (Invitrogen).
Next, detached cells were pooled with cell culture supernatants and centrifuged for 5 min (650 g). […]

MCF7 (breast) = assay: SRB short-term cytotoxicity assay, MCF7; assay type: cell-based; conditions: Homo sapiens, 96 h
Description: Short-term anti-proliferative assays were carried out by two different assays using a panel of human cancer and non-malignant human cell lines. […] The transformed human embryonic kidney cell line HEK293T (wt KRAS) was sensitive to all tested drugs, including TMPyP4, a cationic porphyrin established as a G4 ligand, as well as the anticancer drug 5-fluorouracil (5-FU).
Human cell lines, breast carcinoma (MCF7), lung carcinoma (A549), pancreatic cancer (MIA PaCa2, Panc-1), immortalised telomerase-negative human lung fibroblast (ALT) and normal human lung fibroblast (WI-38), were all purchased from American Type Cell Culture (ATCC). Cell lines were maintained in appropriate medium supplemented with 10% fetal bovine serum (Invitrogen, UK), 2 mM L-glutamine (Invitrogen, Netherlands), and other components as specified by the suppliers. All cell lines were maintained at 37°C, 5% CO2, and routinely passaged. Short-term growth inhibition was measured using the SRB assay as described previously[43] (additional details described in Supplementary Information). […]
Sulforhodamine B (SRB) short-term cytotoxicity assay
Cells were seeded at appropriate densities into the wells of 96 well plates in their corresponding medium and incubated overnight to allow the cells to attach. Subsequently cells were exposed to various concentrations of freshly made solutions of drugs and incubated for 96 h. The cells were subsequently fixed with ice-cold trichloacetic acid (TCA) (10%, w/v) for 30 min and stained with 0.4% SRB dissolved in 1% acetic acid for 15 min.
All incubations were carried out at room temperature except for TCA fixation, which was at 4 °C. […]
After electrophoretic transfer onto nitrocellulose membranes, immunoblots were blocked with 5% milk solution, and next incubated overnight at 4 °C with primary mouse monoclonal antibody reactive to KRAS/p53 (#sc-30/sc-126; Santa Cruz Biotechnology Inc., Santa Cruz, CA, USA). […] Steady-state protein levels were expressed as mean ±SEM from at least three independent experiments.

| SMILES | Reduction of KRAS mRNA steady-state levels, HCT116 [1] | IC50 (MCF7 (breast)) [nM] | KRAS mRNA levels reduced to (% remaining) ([1]; IC50 concentration, cell line not given) |
| --- | --- | --- | --- |
| CCN(CC)CCCNc1ccc2[nH]c3c(c[n+](C)c4ccc(NCCCN(CC)CC)cc34)c2c1.[Cl-] [3d] | 25% | – | – |
| CCN(CC)CCCNc1ccc2c(c1)[nH]c1c2c[n+](C)c2ccc(NCCCN(CC)CC)cc12.[Cl-] [3e] | – | 11400 | – |
| C[n+]1ccc(-c2c3nc(c(-c4cc[n+](C)cc4)c4ccc([nH]4)c(-c4cc[n+](C)cc4)c4ccc([nH]4)c(-c4cc[n+](C)cc4)c4nc2C=C4)C=C3)cc1 [TMPyP4, reference compound] | no ability to repress KRAS transcription; also recorded: did not inhibit KRAS transcription | – | – |
| Cn1cc2c3ccccc3nc-2c2cc(Br)ccc21 [2a, 2-bromo-5-methyl-indolo[3,2-c]quinoline] | – | 2880 | – |
| CCN(CC)CCCNc1ccc2c(c1)c1[nH]c3ccccc3c1c[n+]2C [2d] | 90% | 2400 | ~ 10% |
